# Measured values reported in ChEMBL document CHEMBL5131546, “Discovery of 1H-Pyrazole Biaryl Sulfonamides as Novel G2019S-LRRK2 Kinase Inhibitors” (ACS Med Chem Lett, 2022).
# Columns and labels:
# in vitro [1] = conditions: mouse, liver microsomes
# [2] = AUCinf in CD-1 mouse at 2 mg/kg, po by LC-MS/MS analysis; assay type: ADME, organism-based; design: time infinity, dose 2 mg/kg, route po; conditions: in vivo
# [3] = Clearance in CD-1 mouse at 0.5 mg/kg, iv by LC-MS/MS analysis; assay type: ADME, organism-based; conditions: in vivo
# [4] = Half life in CD-1 mouse at 2 mg/kg, po by LC-MS/MS analysis; assay type: ADME, organism-based; conditions: in vivo
# [5] = MRT in CD-1 mouse at 2 mg/kg, po by LC-MS/MS analysis; assay type: ADME, organism-based; conditions: in vivo
# [6] = MRT in CD-1 mouse at 0.5 mg/kg, iv by LC-MS/MS analysis; assay type: ADME, organism-based; conditions: in vivo
# [7] = Oral bioavailability in CD-1 mouse at 2 mg/kg by LC-MS/MS analysis; assay type: ADME, organism-based; conditions: in vivo
# [8] = Half life in CD-1 mouse at 0.5 mg/kg, iv by LC-MS/MS analysis; assay type: ADME, organism-based; conditions: in vivo
# [9] = Tmax in CD-1 mouse at 2 mg/kg, po by LC-MS/MS analysis; assay type: ADME, organism-based; conditions: in vivo
# [10] = Volume of distribution at steady state in CD-1 mouse at 0.5 mg/kg, iv by LC-MS/MS analysis; assay type: ADME, organism-based; conditions: in vivo, read-out: Vdss
# [11] = AUCinf in CD-1 mouse at 0.5 mg/kg, iv by LC-MS/MS analysis; assay type: ADME, organism-based; design: time infinity, dose 0.5 mg/kg, route iv; conditions: in vivo
# [12] = Cmax in CD-1 mouse at 2 mg/kg, po by LC-MS/MS analysis; assay type: ADME, organism-based; design: dose 2 mg/kg, route po; conditions: in vivo
# in vitro [13] = conditions: human, liver microsomes
# in vitro [14] = conditions: human, Caco-2
# [15] = Cmax in CD-1 mouse at 0.5 mg/kg, iv by LC-MS/MS analysis; assay type: ADME, organism-based; design: dose 0.5 mg/kg, route iv; conditions: in vivo
# in vitro [16] = conditions: human, Caco-2; remark: listed apart in the source
smiles,measurement,setting,value
Cc1[nH]nc(-c2ccncc2)c1-c1ccc(-c2cccc(S(N)(=O)=O)c2)c(C2CC2)c1,half-life at 40 min,in vitro [1],0.5 h
same,AUC(0-inf),[2],2.55 µM·h
same,clearance,[3],33.5 mL/min/kg
same,half-life,[4],1.25 h
same,MRT,[5],3.01 h
same,MRT,[6],1.01 h
same,bioavailability,[7],111%
same,half-life,[8],0.8 h
same,Tmax,[9],1 h
same,Vd,[10],2 L/kg
same,AUC(0-inf),[11],0.58 µM·h
same,Cmax,[12],580 nM
same,half-life at 40 min,in vitro [13],2.65 h
same,"Papp A→B at 2 h, 10 µM",in vitro [14],8.78 ×10⁻⁶ cm/s
same,Cmax,[15],580 nM
same,"Papp B→A at 2 h, 10 µM",in vitro [16],27 ×10⁻⁶ cm/s
